One block for each compound: values may come before it. Active and inactive are the calls of the source. The calls are words filed in the database; no cut-off is given here.
Assays:
r(CUG) repeat expansion [1] = test: Induction of DMPK mRNA 3'-UTR r(CUG)1300 repeat degradation in human DM1 patient-derived myotubes at 5 uM by RT-qPCR analysis relative to control; format: nucleic-acid assay
r(CUG) repeat expansion [2] = test: Induction of 5'-biotinylated r(CUG)12 RNA repeat (unknown origin) degradation assessed as disruption of r(CUG)12-MBNL1 complex formation incubated for 15 mins by TR-FRET assay; format: nucleic-acid assay
r(CUG) repeat expansion [3] = test: Binding affinity to r(CUG)12 RNA repeat (unknown origin) by fluorescence based assay; format: nucleic-acid assay
r(CUG) repeat expansion [4] = test: Binding affinity to r(CUG)8 RNA repeat (unknown origin) by fluorescence based assay; format: nucleic-acid assay
r(CUG) repeat expansion [5] = test: Induction of r(CUG)exp RNA repeat in human DM1-patient derived myotubes assessed as improvement in MBNL1 exon 5 splicing defect by RT-qPCR analysis; format: nucleic-acid assay
r(CUG) repeat expansion [6] = test: Induction of r(CUG)exp RNA repeat in human DM1-patient derived myotubes assessed as improvement in MBNL1 exon 5 splicing defect at 5 uM by RT-qPCR analysis relative to control; format: nucleic-acid assay
r(CUG) repeat expansion [7] = test: Induction of r(CUG)exp RNA repeat in human DM1-patient derived myotubes assessed as reduction in number of foci containing r(CUG)exp-MBNL1 foci at 5 uM by RNA fluorescence in situ hybridization assay; format: nucleic-acid assay
r(CUG) repeat expansion [8] = test: Induction of r(CUG)exp RNA repeat in human DM1-patient derived myotubes assessed as reduction in number of foci containing r(CUG)exp-MBNL1 foci at 5 uM by immunofluorescence assay; format: nucleic-acid assay
[9] = Drug uptake in human DM1-patient derived myotubes by fluorescence based assay; format: ADME; settings: in vitro
[10] = Drug localization in nucleus of human DM1-patient derived myotubes by live-cell fluorescence microscopy; format: ADME, subcellular
[11] = Drug localization in cytoplasm of human DM1-patient derived myotubes by live-cell fluorescence microscopy; format: ADME, subcellular
[12] = Toxicity in human DM1-patient derived myotubes at 5 uM
r(CUG) repeat expansion [13] = test: Induction of r(CUG)10 RNA repeat (unknown origin) degradation at 2.5 uM relative to control; format: nucleic-acid assay
r(CUG) repeat expansion [14] = test: Induction of DMPK mRNA 3'-UTR r(CUG)1300 repeat degradation in human DM1 patient-derived myotubes at 0.2 to 5 uM by RT-qPCR analysis relative to control; format: nucleic-acid assay
r(CUG) repeat expansion [15] = test: Induction of r(CUG)exp RNA repeat in human DM1-patient derived myotubes assessed as improvement in MBNL1 exon 5 splicing defect at 0.2 to 5 uM by RT-qPCR analysis relative to control; format: nucleic-acid assay

SMILES: CN1CCN(c2ccc3[nH]c(-c4ccc5[nH]c(-c6cccc(OCCCC(=O)N(C)CCCCN(CC(N)=O)C(=O)[C@@H]7CCCN7C(=O)[C@@H]7CCCN7C(=O)CCCOc7cccc(-c8nc9ccc(-c%10nc%11ccc(N%12CCN(C)CC%12)cc%11[nH]%10)cc9[nH]8)c7)c6)nc5c4)nc3c2)CC1
IC50 (r(CUG) repeat expansion [2]): 5.3 µM
EC50 (r(CUG) repeat expansion [3]): 150 nM
EC50 (r(CUG) repeat expansion [4]): > 10 µM
Activity (r(CUG) repeat expansion [5]): Dose-dependent effect
Activity (r(CUG) repeat expansion [6]): 30%
Activity (r(CUG) repeat expansion [7]): Active
Activity (r(CUG) repeat expansion [8]): Active
Drug uptake [9]: Active
Drug uptake [10]: Active
Drug uptake [11]: Active

SMILES: CN1CCN(c2ccc3[nH]c(-c4ccc5[nH]c(-c6cccc(OCCCC(=O)N(C)CCCCN(CC(N)=O)C(=O)[C@H](Cc7ccc(O)cc7)NC(=O)[C@H](Cc7ccc(O)cc7)NC(=O)[C@H](Cc7ccc(O)cc7)NC(=O)[C@H](Cc7ccc(O)cc7)NC(=O)CCCOc7cccc(-c8nc9ccc(-c%10nc%11ccc(N%12CCN(C)CC%12)cc%11[nH]%10)cc9[nH]8)c7)c6)nc5c4)nc3c2)CC1
Activity [12]: Toxic

SMILES: CN1CCN(c2ccc3[nH]c(-c4ccc5[nH]c(-c6cccc(OCCCC(=O)N(C)CCCCN(CC(N)=O)C(=O)[C@@H]7CCCN7C(=O)[C@@H]7CCCN7C(=O)[C@@H]7CCCN7C(=O)[C@@H]7CCCN7C(=O)CCCOc7cccc(-c8nc9ccc(-c%10nc%11ccc(N%12CCN(C)CC%12)cc%11[nH]%10)cc9[nH]8)c7)c6)nc5c4)nc3c2)CC1
Activity (r(CUG) repeat expansion [2]): Active

SMILES: CC(=O)N(C)CCCCN(CC(=O)NCCCCNCCCNC(=O)c1csc(-c2csc(CCNC(=O)[C@@H](NC(=O)[C@H](C)[C@@H](O)[C@H](C)NC(=O)[C@H](NC(=O)c3nc([C@@H](CC(N)=O)NC[C@@H](N)C(N)=O)nc(N)c3C)[C@H](O[C@@H]3O[C@@H](CO)[C@@H](O)[C@@H](O)[C@@H]3O[C@H]3O[C@H](CO)[C@@H](O)[C@H](OC(N)=O)[C@H]3O)c3cnc[nH]3)[C@H](C)O)n2)n1)C(=O)[C@H]1CCCN1C(=O)[C@H]1CCCN1C(C)=O
Activity (r(CUG) repeat expansion [13]): inactive
Activity (r(CUG) repeat expansion [14]): inactive
Activity (r(CUG) repeat expansion [15]): inactive

Second part, the compound after the results:

Activity (r(CUG) repeat expansion [1]): 30%
SMILES: CC(=O)O[C@H]1[C@H](O)[C@H](O[C@@H]2[C@H](O[C@H](c3cnc[nH]3)[C@@H](NC(=O)c3nc([C@@H](CC(N)=O)NC[C@@H](N)C(N)=O)nc(N)c3C)C(=O)N[C@@H](C)[C@H](O)[C@@H](C)C(=O)N[C@H](C(=O)NCCc3nc(-c4nc(C(=O)NCCCNCCCCNC(=O)CCCCCCC(=O)N(CCN(C)C(=O)CCCOc5cccc(-c6nc7ccc(-c8nc9ccc(N%10CCN(C)CC%10)cc9[nH]8)cc7[nH]6)c5)CC(=O)N(C)[C@@H](C)C(=O)N(C)[C@@H](C)C(=O)N(C)[C@@H](C)C(=O)N(CCCCN(C)C(=O)CCCOc5cccc(-c6nc7ccc(-c8nc9ccc(N%10CCN(C)CC%10)cc9[nH]8)cc7[nH]6)c5)CC(N)=O)cs4)cs3)[C@H](C)O)O[C@@H](CO)[C@H](O)[C@H]2O)O[C@@H](CO)[C@@H]1O

Activity (r(CUG) repeat expansion [2]): Active
SMILES: CN1CCN(c2ccc3[nH]c(-c4ccc5[nH]c(-c6cccc(OCCCC(=O)N(C)CCCCN(CC(N)=O)C(=O)[C@H](Cc7ccc(O)cc7)N(C)C(=O)[C@H](Cc7ccc(O)cc7)N(C)C(=O)[C@H](Cc7ccc(O)cc7)N(C)C(=O)[C@H](Cc7ccc(O)cc7)N(C)C(=O)CCCOc7cccc(-c8nc9ccc(-c%10nc%11ccc(N%12CCN(C)CC%12)cc%11[nH]%10)cc9[nH]8)c7)c6)nc5c4)nc3c2)CC1

Activity (r(CUG) repeat expansion [2]): Active
Activity (r(CUG) repeat expansion [6]): inactive
Drug uptake [9]: Active
Drug uptake [11]: Active
SMILES: CN1CCN(c2ccc3[nH]c(-c4ccc5[nH]c(-c6cccc(OCCCC(=O)N(C)CCCCN(CC(N)=O)C(=O)[C@@H]7C[C@@H](O)CN7C(=O)[C@@H]7C[C@@H](O)CN7C(=O)[C@@H]7C[C@@H](O)CN7C(=O)[C@@H]7C[C@@H](O)CN7C(=O)CCCOc7cccc(-c8nc9ccc(-c%10nc%11ccc(N%12CCN(C)CC%12)cc%11[nH]%10)cc9[nH]8)c7)c6)nc5c4)nc3c2)CC1

Source: ChEMBL document CHEMBL4616726, “Optimization of the Linker Domain in a Dimeric Compound that Degrades an r(CUG) Repeat Expansion in Cells” (J Med Chem, 2020)
